# In patent publication US5480892A, “(N-phthalimidoalkyl)piperidines” (The Du Pont Merck Pharmaceutical Company, priority 1994, dated 1996):
# pKi: −log10 of the molar value. Like-named read-outs stand apart in the source and are kept apart here.
# How the values were obtained:
# Sigma receptor = molecular target: T1, Sigma receptor (Cavia porcellus, UniProt Q60492); experiment: Sigma Receptor Binding Assay; assay type: guinea pig (male Hartley), brain membranes
# T1 construct: Brain membranes were prepared by the method of Tam; from tissue; host or cells: guinea pig whole brain membranes
# T1 sequence (Q60492 whole entry): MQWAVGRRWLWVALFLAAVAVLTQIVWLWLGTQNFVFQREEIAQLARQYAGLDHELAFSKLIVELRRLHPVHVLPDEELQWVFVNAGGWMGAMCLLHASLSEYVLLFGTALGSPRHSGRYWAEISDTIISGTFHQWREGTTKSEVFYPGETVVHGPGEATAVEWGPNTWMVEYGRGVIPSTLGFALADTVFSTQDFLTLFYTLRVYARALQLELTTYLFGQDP
# Dopamine (D-2) receptor = molecular target: T2, Dopamine (D-2) receptor (Cavia porcellus, UniProt H0VE83); experiment: Dopamine Receptor Binding; assay type: guinea pig, striatum membranes; conditions: 0.15 nM [3H]spiperone, guinea pig striatum, pH 7.7, 15 min 37° C.; read-out: Receptor Binding Affinity Dopamine (D-2) (Ki class)
# T2 construct: Membranes were prepared from guinea pig striatum; from tissue; host or cells: guinea pig striatum membranes
# T2 sequence (H0VE83 1-446): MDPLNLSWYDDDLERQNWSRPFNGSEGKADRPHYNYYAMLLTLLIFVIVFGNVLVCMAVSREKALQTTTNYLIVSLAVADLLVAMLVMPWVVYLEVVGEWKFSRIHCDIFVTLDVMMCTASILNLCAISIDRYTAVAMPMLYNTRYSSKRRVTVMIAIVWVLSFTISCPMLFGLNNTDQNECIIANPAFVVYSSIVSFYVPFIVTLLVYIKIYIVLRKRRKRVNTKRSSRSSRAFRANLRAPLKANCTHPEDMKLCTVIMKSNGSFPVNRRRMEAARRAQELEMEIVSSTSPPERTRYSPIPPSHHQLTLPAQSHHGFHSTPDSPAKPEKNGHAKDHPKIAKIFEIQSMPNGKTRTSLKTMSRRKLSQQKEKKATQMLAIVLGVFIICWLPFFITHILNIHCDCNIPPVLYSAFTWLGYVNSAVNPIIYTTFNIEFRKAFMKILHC
# [1] = test system: isolation-induced aggression in mice; experiment: Isolation-Induced Aggression in Mice; assay type: in vivo, mouse (male Balb/c); conditions: for ED50: Mus musculus, po, 0.25 h, mice, p.o., 15 min after dosing, read-out: Inhibition of Isolation-induced Aggression (ED50 class); for inhibiting the isolation-induced aggressive behavior: statement on Table II
# [2] = test system: mescaline-induced scratching in mice; experiment: Mescaline-Induced Scratching in Mice; assay type: in vivo, mouse (male CF1); conditions: Mus musculus, 0.75 h, mescaline 25 mg/kg orally, 10 mg/kg po, read-out: Inhibition of Mescaline Scratch (ED50 class)
# Method: This is a modification of the procedure of Fellows and Cook (in Psychotropic Drugs, ed. by S. Garrattini and V. Ghatti, pp. 397-404, Elsevier, Amsterdam, 1957) and Deegan and Cook (J. Pharmacol. Exp. Ther. 122: 17A, 1958). Male CF1 Mice (Charles River) were injected orally with test compound and placed singly into square (13 cm) Plexiglass observation chambers. Twenty minutes later mice were injected orally with mescaline (25 mg/kg). Beginning 25 minutes after treatment with mescaline (45 minutes after treatment with test compound), scratching episodes were counted during a 5 minute observation period. A scratching episode is defined as a brief (1-2 sec) burst of scratching either the head or the ear with the hind foot.
# [3] = 1 nM (+)-[3H]SKF 10,047, guinea pig brain membranes, pH 7.4, 45 min room temperature, read-out: Receptor Binding Affinity Sigma (Ki class)
SMILES,pKi (Sigma receptor; [3]),pKi (Dopamine (D-2) receptor),ED50 [1],inhibiting the isolation-induced aggressive behavior [1],ED50 [2],pKi (Sigma receptor)
O=C1c2ccccc2C(=O)N1CC1CCN(Cc2ccccc2)CC1 [Example 34],7.52 to 9.00,< 6.30,11 to 20 mg/kg,,,
O=C1[C@H]2CCCC[C@H]2C(=O)N1CC1CCN(CC2CCCCC2)CC1 [Example 15],7.52 to 9.00,< 6.30,,potent activities,,
CCCC1C2=C(CCCC2)C(=O)N1CC1CCN(CCc2ccccc2)CC1 (centres unmarked) [Example 144],,,< 11 mg/kg,,< 11 mg/kg,
Cc1ccc(C2C3=C(CCCC3)C(=O)N2CC2CCN(CCc3ccccc3)CC2)cc1 (centres unmarked) [Example 143],,,< 11 mg/kg,,< 11 mg/kg,
O=C1C2=C(CCCC2)C(c2ccco2)N1CC1CCN(CCc2ccccc2)CC1 (centres unmarked) [Example 141],7.52 to 9.00,,,,< 11 mg/kg,
CCCCC1C2=C(CCCC2)C(=O)N1CC1CCN(CCc2ccccc2)CC1 (centres unmarked) [Example 135],,,< 11 mg/kg,,< 11 mg/kg,
O=C1[C@H]2CCCC[C@H]2C(=O)N1CC1(c2ccc(Cl)cc2)CCN(CCc2ccccc2)CC1 [Example 124],,< 6.30,,,,7.52 to 9.00
O=C1[C@H]2CCCC[C@H]2C(=O)N1CC1(c2cccc3ccccc23)CCN(CCc2ccccc2)CC1 [Example 127],,< 6.30,,,,7.00 to 7.51
O=C1c2ccccc2C(=O)N1CC1CCCN(Cc2ccccc2)C1 (centres unmarked) [Example 47],7.52 to 9.00,< 6.30,,,,
O=C1c2ccccc2C(=O)N1CCCC1CCN(CCc2ccccc2)CC1 [Example 44],7.52 to 9.00,< 6.30,,,,
CC1(CN2C(=O)[C@H]3CCCC[C@H]3C2=O)CCN(CCC2CCCCC2)CC1 [Example 133],7.52 to 9.00,< 6.30,,,,
O=C1[C@H]2CCCC[C@H]2C(=O)N1CC1CCN(CCC2CCCCC2)CC1 [Example 17],7.52 to 9.00,< 6.30,,potent activities,,
O=C1c2ccccc2C(=O)N1CCC1CCN(CC2CC2)CC1 [Example 42],7.52 to 9.00,< 6.30,,,,
CC12CC=CCC1(C)C(=O)N(CC1CCN(CCc3ccccc3)CC1)C2=O (centres unmarked) [Example 66],7.00 to 7.51,< 6.30,,,,
O=C1[C@H]2CCCC[C@H]2C(=O)N1CC1(O)CCN(CCc2ccccc2)CC1 [Example 74],6.30 to 7.00,< 6.30,,,,
CC1C2=C(CCCC2)C(=O)N1CC1CCN(CCc2ccc(F)cc2)CC1 (centres unmarked) [Example 137],,,< 11 mg/kg,,< 11 mg/kg,

SMILES,pKi (Sigma receptor; [3]),pKi (Dopamine (D-2) receptor),ED50 [1],inhibiting the isolation-induced aggressive behavior [1],ED50 [2],pKi (Sigma receptor)
O=C1[C@H]2CC=CC[C@H]2C(=O)N1CCCC1=CCN(CCc2ccccc2)CC1 [Example 118],7.52 to 9.00,< 6.30,,,,
O=C1C2=C(CCCC2)C(c2ccccc2)N1CC1CCN(CCc2ccccc2)CC1 (centres unmarked) [Example 134],7.00 to 7.51,,,,< 11 mg/kg,
"O=C1c2ccccc2C(=O)N1CCCC1CCCN(Cc2ccccc2)C1 (centres unmarked) [Example 4, 2-[3-[1-(phenylmethyl)-3-piperidinyl]propyl]-1H-isoindole-1,3(2H)-dione]",7.52 to 9.00,< 6.30,,,,
O=C1c2ccccc2C(=O)N1CCCC1CCCN(CCc2ccccc2)C1 (centres unmarked) [Example 49],7.52 to 9.00,< 6.30,,,,
O=C1C2C3C=CC(C4CCC34)C2C(=O)N1CC1(O)CCN(CCc2ccccc2)CC1 (centres unmarked) [Example 77],7.00 to 7.51,< 6.30,,,,
O=C1c2ccccc2C(=O)N1CC1(c2cccc(Cl)c2)CCN(CCc2ccccc2)CC1 [Example 130],,< 6.30,,,,7.52 to 9.00
O=C1c2ccccc2C(=O)N1CCC1CCCCN1Cc1ccccc1 (centres unmarked) [Example 50],7.00 to 7.51,< 6.30,,,,
O=C1[C@H]2CCCC[C@H]2C(=O)N1CC1CCN(CCc2ccc(F)cc2)CC1 [Example 29],7.00 to 7.51,< 6.30,,,,
CC12CC=CCC1C(=O)N(CC1CCN(CCc3ccccc3)CC1)C2=O (centres unmarked) [Example 67],6.30 to 7.00,< 6.30,,,,
O=C1[C@H]2CCCC[C@H]2C(=O)N1CC1CCN(Cc2ccc(F)cc2)CC1 [Example 20],7.52 to 9.00,< 6.30,,,,
O=C1[C@H]2CCCC[C@H]2C(=O)N1C1CCN(CCc2ccccc2)CC1 [Example 13],7.00 to 7.51,< 6.30,,,,
O=C1c2ccccc2C(=O)N1CCC1CCN(CCc2ccccc2)CC1 [Example 39],7.52 to 9.00,< 6.30,21 to 70 mg/kg,,,
O=C1c2ccccc2C(=O)N1CC1CCN(CC2CC2)CC1 [Example 37],6.30 to 7.00,< 6.30,,,,
"O=C1c2ccccc2C(=O)N1CC1CCN(CCc2ccccc2)CC1 [Example 2, 2-[1-(2-Phenylethyl)-4-piperidinylmethyl]-1H-isoindole-1,3(2H)-dione]",7.00 to 7.51,< 6.30,,,,
O=C1[C@H]2CC=CC[C@H]2C(=O)N1CC1=CCN(CCc2ccccc2)CC1 [Example 117],7.52 to 9.00,< 6.30,,,,
O=C1[C@H]2CCCC[C@H]2C(=O)N1CC1CCN(CCc2ccc(Cl)cc2)CC1 [Example 26],7.52 to 9.00,< 6.30,,,,

# The next lines start with results.
pKi (Sigma receptor; [3]),pKi (Dopamine (D-2) receptor),SMILES,ED50 [1],inhibiting the isolation-induced aggressive behavior [1],ED50 [2],pKi (Sigma receptor)
7.00 to 7.51,< 6.30,"O=C1C2=C(CCCC2)CN1CC1CCN(CCc2ccccc2)CC1 [Example 6, 2,3,4,5,6,7-hexahydro-2-[[1-(2-phenylethyl)-4-piperidinyl]methyl]-1H-isoindol-1-one]",21 to 70 mg/kg,potent activities,,
7.00 to 7.51,,CCC(C)C1C2=C(CCCC2)C(=O)N1CC1CCN(CCc2ccccc2)CC1 (centres unmarked) [Example 140],,,< 11 mg/kg,
7.52 to 9.00,< 6.30,CC1CC[C@@H]2C(=O)N(CC3CCN(CCc4ccccc4)CC3)C(=O)[C@@H]2C1 (some centres unmarked) [Example 23],21 to 70 mg/kg,,,
6.30 to 7.00,< 6.30,"O=C1C2CCCCC2C(O)N1CC1CCN(CCc2ccccc2)CC1 (stereo not drawn) [Example 5, cis-Octahydro-3-hydroxy-2-[[1-(2-phenylethyl)-4-piperidinyl]methyl]-1H-isoindol-1-one]",,,,
7.00 to 7.51,< 6.30,O=C1[C@@H]2CCCC[C@H]2C(=O)N1CC1CCN(CCc2ccccc2)CC1 (relative stereo) [Example 22],,,,
7.52 to 9.00,,O=C1C2=C(CCCC2)C(c2cccs2)N1CC1CCN(CCc2ccccc2)CC1 (centres unmarked) [Example 142],,,< 11 mg/kg,
7.00 to 7.51,< 6.30,O=C1C2C3CCCC(CC3)C2C(O)N1CC1CCN(CCc2ccccc2)CC1 (centres unmarked) [Example 73],,,,
7.00 to 7.51,< 6.30,CC12CCCCC1C(=O)N(CC1CCN(CCc3ccccc3)CC1)C2=O (centres unmarked) [Example 64],,,,
7.52 to 9.00,< 6.30,O=C1C2C3CCCC(CC3)C2C(=O)N1CC1CCN(CCc2ccccc2)CC1 (centres unmarked) [Example 61],,,,
7.52 to 9.00,< 6.30,O=C1C2C3CCC(O3)C2C(=O)N1CC1CCN(CCc2ccccc2)CC1 (centres unmarked) [Example 58],,,,
7.00 to 7.51,< 6.30,O=C1[C@H]2CCCC[C@H]2C(=O)N1CC1CCN(CCCc2ccccc2)CC1 [Example 16],,,,
7.52 to 9.00,< 6.30,O=C1C2=C(CN1CC1CCN(CCc3ccccc3)CC1)C1CCCC2CC1 (centres unmarked) [Example 71],,,,
7.52 to 9.00,< 6.30,O=C1[C@H]2CCCC[C@H]2C(=O)N1CCC1CCN(CCc2ccccc2)CC1 [Example 24],,,,
7.52 to 9.00,< 6.30,O=C1[C@H]2CCCC[C@H]2C(=O)N1CCCC1CCN(CCc2ccccc2)CC1 [Example 33],,,,
7.00 to 7.51,< 6.30,O=C1C2C3CCC(C3)C2CN1CC1CCN(CCc2ccccc2)CC1 (centres unmarked) [Example 54],,,,
